Measurements reported in the supplement of paper PMC10307832.

Assays:
Assay in all cases: relative viability (nuclei count vs DMSO), 5 days (fraction); higher = more cells survive
Tanzisertib + Tozasertib = compound: O[C@H]1CC[C@H](Nc2ncc3nc(Nc4c(F)cc(F)cc4F)n([C@H]4CCOC4)c3n2)CC1 [Tanzisertib] + Cc1cc(Nc2cc(N3CCN(C)CC3)nc(Sc3ccc(NC(=O)C4CC4)cc3)n2)n[nH]1 [Tozasertib] (partner 0.1 µM)
Procedure, shortened: (§1)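 Relative viability equals treated-well nuclei counts divided by vehicle-well nuclei counts. Counts came from 4× images of lung cancer cell lines grown in 1536-well plates for 5 days after pin-tool dosing on the day after seeding. Dosing used one drug alone or a fixed anchor-drug dose plus five library-drug doses (not always all listed) in √10 steps, and values are medians of duplicate plates.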

Tanzisertib + Linsitinib = compound: O[C@H]1CC[C@H](Nc2ncc3nc(Nc4c(F)cc(F)cc4F)n([C@H]4CCOC4)c3n2)CC1 [Tanzisertib] + C[C@]1(O)C[C@@H](c2nc(-c3ccc4ccc(-c5ccccc5)nc4c3)c3c(N)nccn32)C1 [Linsitinib] (partner 1 µM)
Procedure, shortened: as §1

[1] = compound: C1CNCCC1C2=CC(=NN2)C3=CC=NC=C3 + COc1cc2c(Oc3ccc(NC(=O)C4(C(=O)Nc5ccc(F)cc5)CC4)cc3F)ccnc2cc1OCCCN1CCOCC1 [Foretinib] (partner 0.25 µM)
Procedure, shortened: as §1

[2] = compound: C1CNCCC1C2=CC(=NN2)C3=CC=NC=C3 + C[C@]1(O)C[C@@H](c2nc(-c3ccc4ccc(-c5ccccc5)nc4c3)c3c(N)nccn32)C1 [Linsitinib] (partner 1 µM)
Procedure, shortened: as §1

Cell Line | relative viability (Tanzisertib + Tozasertib; first compound 0.08 µM) | relative viability (Tanzisertib + Tozasertib; first compound 0.253 µM) | relative viability (Tanzisertib + Tozasertib; first compound 0.8 µM) | relative viability (Tanzisertib + Tozasertib; first compound 2.53 µM) | relative viability (Tanzisertib + Tozasertib; first compound 8 µM) | relative viability (Tanzisertib + Linsitinib; first compound 0.08 µM) | relative viability (Tanzisertib + Linsitinib; first compound 0.253 µM) | relative viability (Tanzisertib + Linsitinib; first compound 0.8 µM) | relative viability (Tanzisertib + Linsitinib; first compound 2.53 µM) | relative viability (Tanzisertib + Linsitinib; first compound 8 µM) | relative viability ([1]; first compound 0.08 µM) | relative viability ([1]; first compound 0.8 µM) | relative viability ([1]; first compound 2.53 µM) | relative viability ([1]; first compound 8 µM) | relative viability ([2]; first compound 0.08 µM) | relative viability ([2]; first compound 0.8 µM) | relative viability ([2]; first compound 2.53 µM) | relative viability ([2]; first compound 8 µM)
HCC-366 | 0.105 | 0.0977 | 0.114 | 0.0525 | 0.0508 | 0.757 | 0.59 | 0.691 | 0.576 | 0.419 | 0.95 | 0.946 | 0.905 | 1.03 | 0.55 | 0.756 | 0.712 | 0.622
HCC-827 | 0.432 | 0.449 | 0.354 | 0.353 | 0.3 | 0.919 | 0.915 | 0.907 | 0.954 | 0.746 | 1.04 | 1.07 | 1.01 | 1.12 | 0.992 | 0.963 | 1.05 | 0.956
HOP-62 | 0.428 | 0.433 | 0.356 | 0.382 | 0.375 | 0.924 | 1.14 | 1.13 | 1.04 | 0.918 | 1.06 | 1.31 | 1.18 | 1.09 | 0.892 | 1.12 | 1.19 | 1.08
IA-LM | – | – | – | – | – | 0.793 | 0.552 | 0.589 | 0.712 | 0.768 | 1.09 | 1.37 | 1.19 | 1.26 | 0.717 | 0.893 | 0.958 | 0.621
LC-2-ad | 0.479 | 0.412 | 0.495 | 0.415 | 0.34 | 0.94 | 0.838 | 0.921 | 0.812 | 0.796 | – | 0.956 | 0.997 | 0.948 | 0.805 | 0.825 | 0.909 | 0.869
LCLC-97TM1 | 0.252 | 0.199 | 0.207 | 0.207 | 0.179 | – | 0.18 | 0.192 | 0.186 | 0.2 | 0.946 | 0.888 | 0.938 | 0.904 | 0.142 | 0.183 | 0.201 | 0.211
LCLC-103H | 0.597 | 0.442 | 0.499 | 0.475 | 0.457 | 0.928 | 0.994 | 0.917 | 1.06 | 1.11 | 0.777 | 0.695 | 0.72 | 0.883 | 1.07 | 0.846 | 1.1 | 0.951
LK-2 | 0.164 | 0.18 | 0.17 | 0.163 | 0.169 | 0.522 | 0.519 | 0.724 | 0.624 | 0.637 | 1.05 | 1.27 | 1.03 | 1.42 | – | 0.751 | 0.427 | 0.519
LOU-NH91 | 0.778 | 0.683 | 0.681 | 0.652 | 0.596 | 0.996 | 0.906 | 0.996 | 0.842 | 0.627 | 0.944 | 0.911 | 1 | 0.936 | 0.85 | 1 | 1.14 | 0.962
LU99A | 0.256 | 0.284 | 0.276 | 0.259 | 0.298 | 0.557 | 0.481 | 0.505 | 0.523 | 0.537 | 0.766 | 0.87 | 0.864 | 0.797 | 0.53 | 0.579 | 0.551 | 0.513
LXF-289 | 0.236 | 0.165 | 0.149 | 0.17 | 0.147 | 1.04 | 0.916 | 1.04 | 0.995 | 1.04 | 0.978 | 1.03 | 0.989 | 0.918 | 0.963 | 1.04 | 0.981 | 0.9
NCI-H23 | 0.369 | 0.362 | 0.306 | 0.29 | 0.293 | 0.614 | 0.497 | 0.535 | 0.627 | 0.638 | 0.766 | 1.19 | 1.25 | 1.11 | 0.5 | 0.642 | 0.675 | 0.644
NCI-H322M | 0.473 | 0.468 | 0.498 | 0.487 | 0.499 | 1 | 0.891 | 0.795 | 0.88 | 1.02 | 0.965 | 1.1 | 1.02 | 1.13 | 0.874 | 0.71 | 0.899 | 0.888
NCI-H522 | 0.578 | 0.458 | 0.555 | 0.572 | 0.545 | – | – | – | – | – | – | – | – | – | – | – | – | –
NCI-H1299 | – | – | – | – | – | 1.16 | 0.976 | 1.02 | 1.09 | 1.06 | 1.1 | 1.08 | 1.07 | 1.08 | 0.987 | 1.14 | 1.05 | 0.924
NCI-H1563 | – | – | – | – | – | 1.28 | 1.12 | 1.2 | 1.24 | 1.16 | 0.727 | 0.94 | 0.943 | 0.973 | 0.868 | 1.13 | 1.24 | 1.25
NCI-H1623 | 0.482 | 0.414 | 0.482 | 0.47 | 0.405 | – | – | – | – | – | 0.891 | 0.702 | 1.03 | 0.924 | – | – | – | –
NCI-H1648 | 0.418 | 0.564 | 0.467 | 0.398 | 0.597 | – | – | – | – | – | – | – | – | – | – | – | – | –
NCI-H1650 | 0.392 | 0.433 | 0.399 | 0.359 | 0.294 | – | – | – | – | – | 0.798 | 0.98 | 1.16 | 1.21 | – | – | – | –
NCI-H1703 | – | – | – | – | – | 1.03 | 0.674 | 0.787 | 0.316 | 0.546 | 0.389 | 0.355 | 0.349 | 0.348 | 0.79 | 0.858 | 0.928 | 0.852
NCI-H1792 | – | – | – | – | – | 0.552 | 0.562 | 0.623 | 0.497 | 0.478 | – | – | – | – | 0.521 | 0.514 | 0.566 | 0.534
NCI-H2170 | 0.881 | 0.789 | 0.669 | 0.717 | 0.651 | – | – | – | – | – | 0.897 | 0.974 | 1 | 1.01 | – | – | – | –
NCI-H2342 | 0.584 | 0.481 | 0.63 | 0.523 | 0.581 | – | – | – | – | – | 0.899 | 1.04 | 1.21 | 1.29 | – | – | – | –
SW 900 | 0.686 | 0.528 | 0.603 | 0.501 | 0.544 | – | – | – | – | – | 0.899 | 1.01 | 0.856 | 1.01 | – | – | – | –
